The record followed here is patent publication US9701658B2, “Amide derivatives as TTX-S blockers” (RaQualia Pharma Inc., priority 2012, dated 2017).

Holding throughout (assay type): cell-based
The target in assay [1] is T1, human Nav1.7 (hSCN9A) (Homo sapiens, UniProt Q15858).
T1 construct: expressed in transfected cells; host or cells: CHO
The assay is described as follows: Electrophysiology assay for Navs, whole cell patch clamp, human Nav1.7 (hSCN9A) expressing CHO cells. To be noted: Kinact, read-out: activity (Ki) against Nav1.7, dissociation constant for the inactivated state. The method, then:
Electrophysiology Assay for Navs
Whole cell patch clamp recording is used to assess the efficacy or selectivity of Na channel blocker on human Nav1.3 (hSCN3A) expressing HEK293 cells or human Nv1.7 (hSCN9A) expressing CHO cells. Human Nav1.3 expressing HEK293 cells are grown in growth media which contain: Dulbecco's […] (DMEM), 10% heat-inactivated fetal bovine serum (FBS) (Hyclone Laboratories Inc), 100 microgram/mL Penicillin/100 U/mL Streptomycin, 150 microgram/mL Zeocin, 3 microgram/mL Geneticin. Human Nav1.7 expressing CHO cells are grown in growth media which comprised: HAM/F-12, 9% heat-inactivated FBS (Hyclone Laboratories Inc) and 100 microgram/mL Penicillin/100 U/mL Streptomycin, 100 microgram/mL Hygromycin.
Na channel expressing cells are dissociated by 0.05% trypsine-EDTA, and then seeded on cover glass for 24 to 48 hr. […]
The normalized steady-state inactivation curve is constructed using 2 sec (for vehicle) or 60 sec (for drugs) conditioning pulse to different potentials followed immediately by the test pulse to −10 mV. […] The affinity of drugs to resting state of Na channels (Kresting or Kr) is assessed by 30 msec test pulse from a negative holding potential of −120 or −130 mV, where virtually all channels are in the resting state. Kr value is calculated by a conventional 1:1 binding model: Kresting(Kr)={[drug]Imax,drug/(Imax,control−Imax,drug)} […]

Assay [2] concerns the target T2, human Nav1.3 (Homo sapiens, UniProt Q9NY46).
T2 construct: expressed in transfected cells; host or cells: HEK293
Kind of assay: FRET assay, human Nav1.3 channels (HEK293, EFS on FDSS). As to conditions: read-out: activity (IC50) against Nav1.3. The method, then:
(§1) The ability of the amide derivatives of the formula (I) to inhibit the Nav1.3, Nav1.7 and Nav1.5 channels is measured by Fluorescence Resonance Energy Transfer (FRET) assay and electrophysiology assay described below.
(§2) This screen is used to determine the effects of compounds on human Nav1.3, human Nav1.7, and human Nav1.5 channels, utilizing electrical field stimulation (EFS) system in 96-well plate format on FDSS (Hamamatsu Photonics) platform. The change of membrane potential is monitored with FRET dye pair, oxonol (DiSBAC2(3)) and coumarin (CC2-DMPE).
(§3) Each HEK293 cells expressing human Nav1.3 channels and HEK293 cells expressing human Nav1.5 channels are grown in T225 flasks, in a 5% CO2 humidified incubator to about 80% confluence. Media composition consists of Dulbecco's Modified Eagle Medium (high glucose), 10% FCS, 100 units/mL Penicillin, 100 microgram/mL Streptomycin and 500 microgram/mL Geneticin™. […]
(§4) The data are analyzed and reported as normalized ratios of intensities measured at […]. […]
(§5) This analysis is performed using a computerized specific program designed for FDSS generated data. Fluorescence ratio values are plotted using XLfit™ to determine an IC50 value for each compound.

Assay [3] has as its target T3, human Nav1.7 (Homo sapiens, UniProt Q15858).
T3 construct: expressed in transfected cells; host or cells: CHO
Kind of assay: FRET assay, human Nav1.7 channels (CHO, EFS on FDSS). As to conditions: read-out: activity (IC50) against Nav1.7. The method, then: as §1, §2
CHO cells expressing human Nav1.7 channels are grown in T225 flasks, in a 5% CO2 humidified incubator to about 80% confluence. Media composition consists of HAM/F12 with Glutamax I, 10% FCS, 100 units/mL Penicillin and 100 microgram/mL Hygromycin. […]
as §4, §5

Assay [4] deals with T4, human Nav1.5 (Homo sapiens, UniProt Q14524).
T4 construct: expressed in transfected cells; host or cells: HEK293
The assay is described as follows: FRET assay, human Nav1.5 channels (HEK293, EFS on FDSS). To be noted: read-out: activity (IC50) against Nav1.5. As for the experimental part:
as §1, §2, §3, §4, §5

T3 sequence (Q15858 whole entry): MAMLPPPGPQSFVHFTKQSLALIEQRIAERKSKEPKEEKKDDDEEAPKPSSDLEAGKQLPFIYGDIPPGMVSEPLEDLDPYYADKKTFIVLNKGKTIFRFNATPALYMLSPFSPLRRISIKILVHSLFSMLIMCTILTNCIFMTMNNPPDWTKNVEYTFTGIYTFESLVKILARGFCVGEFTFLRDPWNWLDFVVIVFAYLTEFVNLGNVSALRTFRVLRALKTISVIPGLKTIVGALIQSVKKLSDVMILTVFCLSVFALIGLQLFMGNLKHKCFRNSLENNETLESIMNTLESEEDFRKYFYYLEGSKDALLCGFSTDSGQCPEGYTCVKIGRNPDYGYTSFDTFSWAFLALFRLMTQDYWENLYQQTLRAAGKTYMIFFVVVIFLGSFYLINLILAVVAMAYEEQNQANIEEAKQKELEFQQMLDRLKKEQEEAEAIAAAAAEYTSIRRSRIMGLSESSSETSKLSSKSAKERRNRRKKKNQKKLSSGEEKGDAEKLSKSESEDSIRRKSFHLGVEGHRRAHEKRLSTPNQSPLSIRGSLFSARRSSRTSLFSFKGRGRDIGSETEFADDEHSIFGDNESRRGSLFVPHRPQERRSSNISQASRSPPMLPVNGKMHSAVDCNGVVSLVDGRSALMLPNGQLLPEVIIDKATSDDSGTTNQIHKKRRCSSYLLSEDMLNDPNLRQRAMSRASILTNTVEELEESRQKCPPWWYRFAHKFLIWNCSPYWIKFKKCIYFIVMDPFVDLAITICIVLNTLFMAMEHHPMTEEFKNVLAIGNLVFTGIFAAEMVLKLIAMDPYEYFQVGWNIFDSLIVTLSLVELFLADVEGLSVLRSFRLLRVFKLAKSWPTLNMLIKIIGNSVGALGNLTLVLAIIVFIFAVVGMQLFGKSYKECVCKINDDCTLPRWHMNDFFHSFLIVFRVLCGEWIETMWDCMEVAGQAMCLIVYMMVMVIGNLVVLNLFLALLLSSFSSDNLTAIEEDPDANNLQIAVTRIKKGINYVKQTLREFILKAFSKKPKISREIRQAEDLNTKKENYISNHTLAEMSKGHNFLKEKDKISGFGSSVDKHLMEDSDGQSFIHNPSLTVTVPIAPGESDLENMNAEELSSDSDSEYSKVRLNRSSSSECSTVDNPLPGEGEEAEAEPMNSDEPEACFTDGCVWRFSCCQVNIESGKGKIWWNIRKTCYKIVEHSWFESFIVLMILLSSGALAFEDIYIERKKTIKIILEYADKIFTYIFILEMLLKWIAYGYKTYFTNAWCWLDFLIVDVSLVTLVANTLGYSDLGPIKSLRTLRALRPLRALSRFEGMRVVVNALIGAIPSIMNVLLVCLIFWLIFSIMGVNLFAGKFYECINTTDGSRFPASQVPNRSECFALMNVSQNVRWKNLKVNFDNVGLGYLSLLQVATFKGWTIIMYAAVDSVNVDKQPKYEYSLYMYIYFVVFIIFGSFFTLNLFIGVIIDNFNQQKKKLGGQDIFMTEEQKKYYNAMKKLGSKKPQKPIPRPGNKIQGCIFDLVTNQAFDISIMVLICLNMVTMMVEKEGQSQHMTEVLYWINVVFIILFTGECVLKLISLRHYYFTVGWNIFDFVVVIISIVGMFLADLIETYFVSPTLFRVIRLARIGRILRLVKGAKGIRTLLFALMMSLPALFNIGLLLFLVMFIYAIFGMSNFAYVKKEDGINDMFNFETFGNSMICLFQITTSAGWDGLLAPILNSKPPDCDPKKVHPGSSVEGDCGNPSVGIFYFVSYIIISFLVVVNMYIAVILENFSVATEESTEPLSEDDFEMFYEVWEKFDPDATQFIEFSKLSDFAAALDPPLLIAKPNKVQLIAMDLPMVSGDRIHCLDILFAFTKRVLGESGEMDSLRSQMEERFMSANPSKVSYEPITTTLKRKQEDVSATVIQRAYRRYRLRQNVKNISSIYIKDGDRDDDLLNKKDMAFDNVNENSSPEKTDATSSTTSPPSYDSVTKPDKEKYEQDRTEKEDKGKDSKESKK
T1 sequence (Q15858 whole entry): as above
T2 sequence (Q9NY46 whole entry): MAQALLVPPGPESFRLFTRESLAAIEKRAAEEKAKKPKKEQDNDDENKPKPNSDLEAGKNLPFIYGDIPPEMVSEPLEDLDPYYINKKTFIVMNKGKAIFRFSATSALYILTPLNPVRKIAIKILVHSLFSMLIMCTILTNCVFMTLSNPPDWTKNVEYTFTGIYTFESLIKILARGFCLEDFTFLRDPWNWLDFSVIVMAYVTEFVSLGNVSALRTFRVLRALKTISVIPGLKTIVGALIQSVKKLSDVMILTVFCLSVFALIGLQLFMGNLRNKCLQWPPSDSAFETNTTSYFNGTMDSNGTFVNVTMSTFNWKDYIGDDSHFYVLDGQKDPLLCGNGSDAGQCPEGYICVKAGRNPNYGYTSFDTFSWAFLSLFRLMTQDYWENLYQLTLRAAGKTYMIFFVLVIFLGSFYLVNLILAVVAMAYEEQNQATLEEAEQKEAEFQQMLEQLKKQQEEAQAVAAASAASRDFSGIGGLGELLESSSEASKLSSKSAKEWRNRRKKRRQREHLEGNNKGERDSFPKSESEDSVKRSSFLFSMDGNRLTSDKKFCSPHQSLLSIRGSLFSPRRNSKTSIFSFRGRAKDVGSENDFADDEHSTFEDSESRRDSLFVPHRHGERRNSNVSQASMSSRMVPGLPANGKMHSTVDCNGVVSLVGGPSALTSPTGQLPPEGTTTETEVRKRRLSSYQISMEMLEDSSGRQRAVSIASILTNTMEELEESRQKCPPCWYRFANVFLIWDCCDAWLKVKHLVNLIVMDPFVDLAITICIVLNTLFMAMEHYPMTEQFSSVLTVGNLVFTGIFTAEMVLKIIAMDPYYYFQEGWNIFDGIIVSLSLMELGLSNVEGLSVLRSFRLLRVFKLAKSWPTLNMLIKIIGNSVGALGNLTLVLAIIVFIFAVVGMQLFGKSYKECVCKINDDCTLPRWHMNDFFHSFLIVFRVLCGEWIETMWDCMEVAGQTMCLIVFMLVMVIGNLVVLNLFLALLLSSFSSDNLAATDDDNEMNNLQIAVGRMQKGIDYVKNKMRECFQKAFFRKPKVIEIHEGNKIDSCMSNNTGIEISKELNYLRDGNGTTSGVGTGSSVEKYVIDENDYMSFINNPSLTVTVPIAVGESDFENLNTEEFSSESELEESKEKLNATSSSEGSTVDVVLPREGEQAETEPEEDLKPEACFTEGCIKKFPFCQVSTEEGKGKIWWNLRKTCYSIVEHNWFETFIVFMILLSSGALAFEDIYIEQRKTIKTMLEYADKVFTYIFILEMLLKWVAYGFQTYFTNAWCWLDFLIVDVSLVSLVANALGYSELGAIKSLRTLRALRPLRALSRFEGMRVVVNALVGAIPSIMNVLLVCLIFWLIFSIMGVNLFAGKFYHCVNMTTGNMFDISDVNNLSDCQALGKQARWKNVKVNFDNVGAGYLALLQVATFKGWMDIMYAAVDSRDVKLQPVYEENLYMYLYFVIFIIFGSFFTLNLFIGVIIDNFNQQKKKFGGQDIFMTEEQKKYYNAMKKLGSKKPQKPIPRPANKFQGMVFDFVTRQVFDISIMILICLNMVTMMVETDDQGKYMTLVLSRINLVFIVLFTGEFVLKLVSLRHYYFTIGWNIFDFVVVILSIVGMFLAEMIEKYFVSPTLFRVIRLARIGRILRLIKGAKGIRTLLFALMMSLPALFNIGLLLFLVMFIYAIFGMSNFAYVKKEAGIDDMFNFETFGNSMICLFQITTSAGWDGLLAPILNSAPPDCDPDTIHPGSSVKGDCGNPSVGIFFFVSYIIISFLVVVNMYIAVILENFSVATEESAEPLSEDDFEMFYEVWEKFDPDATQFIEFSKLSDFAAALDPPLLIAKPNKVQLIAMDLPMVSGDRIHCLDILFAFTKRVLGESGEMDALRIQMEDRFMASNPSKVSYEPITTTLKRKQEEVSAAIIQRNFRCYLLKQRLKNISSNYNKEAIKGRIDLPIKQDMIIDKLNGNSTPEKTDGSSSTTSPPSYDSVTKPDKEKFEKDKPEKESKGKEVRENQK

On to `CC(=O)Nc1cc(C(C)NC(=O)c2ccc(OCC(F)(F)F)cn2)cc(C)n1` (single isomer, unassigned) [Example 29, N-(1-(2-acetamido-6-methylpyridin-4-yl)ethyl)-5-(2,2,2-trifluoroethoxy) picolinamide], for which, in assay [1], the Ki amounted to 950 nM.
Regarding `CCC(=O)Nc1cc(CNC(=O)c2ccc(OCC(F)(F)F)nc2)cc(C)n1` [Example 12, N-((2-methyl-6-propionamidopyridin-4-yl)methyl)-6-(2,2,2-trifluoroethoxy) nicotinamide], the IC50 in assay [2] was 510 nM; in assay [3], 1000 nM; in assay [4], above 30000 nM.

In general, IC50 refers to the midpoint of a concentration-inhibition curve.
